Key:
BTA121 = target: T1, BTA121 (Borrelia turicatae, UniProt A0A0R9P931); assay: radioligand binding, Q-sepharose separation, scintillation counting
T1 construct: signal peptide and further N-terminal residues removed, putative PARP domain kept; N-terminal dodeca-His tag cut with TEV protease; E. coli BL21-CodonPlus(DE3)-RIPL; predominantly monomer, some dimer
Text: radioligand binding, Q-sepharose separation, scintillation counting on BTA121 | BTA121 binds palmitate with micromolar Kd

[1] = target: Recombinant BTA121 (Borrelia turicatae), dodeca-His tag cleaved (Borrelia turicatae); assay: SEC; Phenomenex Yarra 3 µ SEC-2000 HPLC column, 1.0 mg/mL, 50 µg loaded, room temperature, 0.5 mL/min; molecular weight estimated with Bio-rad gel filtration standard

## CCCCCCCCCCCCCCCC(=O)O [palmitate]
BTA121
  Kd: 229 µM

## Recombinant BTA121 (Borrelia turicatae), dodeca-His tag cleaved (from UniProt A0A0R9P931 1-445) (natural protein)
[1]
  stoichiometry N: 2
